Source: PubChem BioAssay AID179 (DTP/NCI, 2004)
Values joined by “and” are separate entries in the source; they are usually repeats but may differ in a detail not shown here. Equal values may be shown once. Active and inactive are the calls of the source.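 The calls were made as follows: active = compounds giving half or more protection of infected cells from virus-caused growth loss, again on retest; inactive = the rest.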

Test system: CEM cells HIV-1 protection, formazan growth assay
Assay: NCI AIDS Antiviral Assay
Details: for IC50: measured here: growth of uninfected CEM cells
Summary of the method: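 Protection of CEM cells against HIV-1 measured as cell growth via soluble formazan read-out, with five concentrations tested on both infected and uninfected cells; failure to protect may reflect toxicity.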

Row | Structure (SMILES) | EC50 [µM] | IC50 | outcome
1 | CCSSC1(C)C(=O)N2CCCC2C(=O)N1C (stereo not drawn) | > 200 | 11.5 µM | –
2 | NC1=NN(c2ccccc2)C(=O)C1C(=O)C(=O)Nc1cccc(C(F)(F)F)c1 (stereo not drawn) | – | – | inactive
3 | NCCCOc1ccc(-c2c3nc(cc4ccc([nH]4)c(-c4ccc(OCCCN)cc4)c4nc(cc5ccc2[nH]5)C=C4)C=C3)cc1 | 2.4 | 3.31 µM | –
4 | CCNC(=S)N/N=C/c1cc(OC)ccc1O | > 200 | 107 µM | –
5 | COC(=O)[C@@H]1C[C@@H](OS(=O)(=O)c2ccc(C)cc2)CN1S(=O)(=O)c1ccc(C)cc1 | > 200 | 33.9 µM | –
6 | C=C[C@]1(O[Si](C)(C)C)C[C@@]2(C(=O)OCC)C(O)C(=O)N3CCc4cc(OC)c(OC)cc4[C@]312 (stereo partly drawn) | > 200 | > 200 µM | –
7 | Cn1c(=O)c2nc3n(c2n(C)c1=O)C(=O)C(C(=O)O)N=N3 (stereo not drawn) | > 200 | > 200 µM | –
8 | NCC1OC(OC2C(CO)OC(OC3C(O)C(N)CC(N)C3OC3OC(CN)C(O)C(O)C3N)C2O)C(N)C(O)C1O (stereo not drawn) (tested in a mixture with another compound) | > 135 | 9.33 µM | –
9 | C=CCOC(=O)Cn1ccc(=O)[nH]c1=O | > 200 | > 200 µM | –
10 | CC12CCC3C(CCC4=CC(OC5OC(CO)C(O)C(O)C5O)CCC43C=O)C1(O)CCC2c1ccc(=O)oc1 (stereo not drawn) | > 0.02 | 0.00316 µM | –
11 | O=S(C/C=C/CS(=O)c1ccccc1)c1ccccc1 (stereo not drawn) | > 813 | 70.8 µM | –
12 | CCN=C(N)Nc1ccccc1 | > 200 | 132 µM | –
13 | CC1OC(OC2C(CO)OC(O[C@H]3CC[C@@]4(C)C(=CC[C@H]5[C@@H]6C[C@@H]7O[C@](O)(CC[C@H](C)COC8OC(CO)C(O)C(O)C8O)[C@@H](C)[C@@H]7[C@@]6(C)CC[C@@H]54)C3)C(OC3OC(C)C(O)C(O)C3O)C2O)C(O)C(O)C1O (stereo partly drawn) | > 200 | 1.48 µM | –
14 | Cc1nc2ccccc2c(=O)n1/N=C(\N=Nc1cc(Cl)ccc1Cl)c1ccc(N(C)C)cc1 | – | – | inactive
15 | O=c1ccs[nH]1 | > 676 | 6.46 µM | –
16 | COC1C(O)CC(OC2CC(Oc3cc4cc5c(c(O)c4c(O)c3C)C(=O)[C@@H](OC3CC(OC4CC(OC6CC(C)(O)C(OC(C)=O)C(C)O6)C(O)C(C)O4)C(O)C(C)O3)[C@H]([C@H](OC)C(=O)[C@@H](O)[C@@H](C)O)C5)OC(C)C2OC(C)=O)OC1C (stereo partly drawn) | > 6.17 | 0.00195 µM | –
17 | COc1ccc(SCc2ccc(C(=O)O)cc2[N+](=O)[O-])cc1 | > 295 | 162 µM | –
18 | N#CC12CCC(O)C(CC1)C2=O (stereo not drawn) | – | – | inactive
19 | Cc1cc2c3c(c1)CCCN3CCC2 | > 200 | > 200 µM | –
20 | Cc1nc(-n2nc(-c3ccccc3)cc2-c2ccccc2)sc1C(/C=C\c1ccc([N+](=O)[O-])cc1)=N/NC(=S)NN | > 32.4 | > 32.4 µM | –
21 | CC(=O)C1=CC=C/C1=N\Nc1ccccc1 | > 200 | 11 µM | –

Row | Structure (SMILES) | EC50 [µM] | IC50 | outcome
22 | [NH-]/N=C(\[O-])c1ccncc1.[NH-]/N=C(\[O-])c1ccncc1.[Ni+2] | > 100 | > 100 µM | –
23 | COc1ccc([C@H]2c3cc4c(cc3OC(O)(CO)[C@H]2C(=O)O)OCO4)c(OC)c1 (stereo partly drawn) (tested in a mixture with another compound) | – | – | inactive
24 | CCCCCCNC(=O)CCN(C(=O)O)S(=O)(=O)c1ccc(NC(=O)c2ccccc2)cc1 | > 380 | > 380 µM | –
25 | NC(=S)N/N=C1\CCCC1C(O)(C(F)(F)Cl)C(F)(F)Cl (stereo not drawn) | > 200 | 38.9 µM | –
26 | CC(O)c1nc(C#N)c(N)o1 (stereo not drawn) | 3.31 | > 200 µM | –
27 | CCOC(=O)C1c2[nH]c3ccccc3c2CCN1C(=O)c1ccc(OC)o1 (stereo not drawn) | > 51.3 | 38.9 µM | –
28 | C=CCN1COc2c(cc3c4c(cccc24)C(=O)O3)C1 | > 26.9 | 4.27 µM | –
29 | CCc1ccc([OH2+])c(C(=O)[O-])c1.CCc1ccc([OH2+])c(C(=O)[O-])c1.CCc1ccc([OH2+])c(C(=O)[O-])c1.CCc1ccc([OH2+])c(C(=O)[O-])c1.[Cu+2].[Cu+2] | > 200 | 23.4 µM | –
30 | Cc1ccc(C2=NOC(=O)[C@@H]3CCCC[C@@H]23)cc1 | > 200 | 97.7 µM | –
31 | CC(C)c1cc2c3c(c1O)OC(=O)C[C@@]3(C)C1[C@@H](OC(=O)C1(C)C)C2=O (stereo partly drawn) | > 501 | 295 µM | –
32 | CC1(C)CNC[C@]2(C)OCCCO[C@@]3(C)CNCC(C)(C)NC(=O)[C@](C)(CNCC(C)(C)NC3=O)OCCCO[C@](C)(CNCC(C)(C)NC2=O)C(=O)N1 | > 200 | > 200 µM | –
33 | O=c1/c(=C/c2ccccc2O)sc2nc3ccccc3n12 | > 17.8 | > 17.8 µM | –
34 | CCOC(=O)C(NC(=O)c1ccccc1)(Nc1ccc(S(=O)(=O)Nc2cc(C)nc(C)n2)cc1)C(F)(F)F (stereo not drawn) | > 200 | > 200 µM | –
35 | O=C1CN=C(c2ccccc2)c2cc(Cl)ccc2N1 | > 26.3 | > 26.3 µM | –
36 | O=c1n(/N=C/c2ccccc2)c(=O)n2n1C1C=CC2CC1 | > 200 | > 200 µM | –
37 | CCOC(=O)c1cc(Br)c(-c2onc(C)c2Br)[nH]1 | > 200 | > 200 µM | –
38 | CCC1(C)C=Cc2c(cc(O)c3c(=O)c4ccccc4n(C)c23)O1 (stereo not drawn) | > 200 | > 200 µM | –
39 | Sc1nc2ccccc2s1.Sc1nc2ccccc2s1.Sc1nc2ccccc2s1.Sc1nc2ccccc2s1.[Cl][Rh][Cl] | > 151 | 2.95 µM | –
40 | CCCCCCCC(=O)OC(CBr)COC(=O)C(C)(C)C (stereo not drawn) | > 251 | 191 µM | –
41 | Cc1ccc(S(=O)(=O)N/N=C/c2oc(-c3ccccc3Cl)c(-c3ccccc3Cl)c2[N+](=O)[O-])cc1 | > 7.08 | > 7.08 µM | –
42 | CN(C)C(=O)/N=C1\SC(=Nc2ccccc2)C(=Nc2ccccc2)N1c1ccc([N+](=O)[O-])cc1 | – | – | inactive

Row | Structure (SMILES) | EC50 [µM] | IC50 | outcome
43 | C/C=C(/C)C(=O)O[C@H]1C[C@@H]2[C@@H](O)c3occ(C)c3C[C@]2(C)[C@@H](C)C1 | > 200 | 10.5 µM | –
44 | COc1ccc(-c2nc(-c3ccc(OC)cc3)n(-c3ccccc3)n2)cc1 | > 200 | 58.9 µM | –
45 | [N-]=[N+]=NC1CC(n2cc(Cc3ccccc3)c(N)nc2=O)OC1CO (stereo not drawn) | > 724 | > 724 µM | –
46 | Cc1c(/C=C/C(=O)O)no[n+]1[O-] | > 200 | > 200 µM | –
47 | CCOC(=O)c1no[n+]([O-])c1C(=O)OCC | > 200 | 5.75 µM | –
48 | O=C(CSc1nnc(Cc2ccccc2)o1)Nc1cccc([N+](=O)[O-])c1 | > 97.7 | > 97.7 µM | –
49 | [N-]=[N+]=CC(=O)C1CCN(c2ccccc2)C1=O (stereo not drawn) | > 200 | > 200 µM | –
50 | CC12CC3CC(C)(C1)CC(SCCN)(C3)C2 | > 200 | 38 µM | –
51 | CSc1nnnc2ccccc12 | > 200 | 145 µM | –
52 | C[N+](C)(C)c1cc2c(nn1)Nc1ccccc1S2 | > 200 | 10 µM | –
53 | CC(CO)CS(=O)(=O)O (stereo not drawn) | > 200 | > 200 µM | –
54 | Oc1ccc2c(c1)c1c(n2CCN2CCOCC2)-c2ccccc2CC1 | > 200 | 30.2 µM | –
55 | O=C1NC2(CCCC2)C2CCCCC12O (stereo not drawn) | – | – | inactive
56 | CCCCC1(C(NC(=O)c2ccccc2Cl)c2ccncc2)C(=O)N(c2ccccc2)N(c2ccccc2)C1=O (stereo not drawn) | – | – | inactive
57 | N#Cc1ccc(Oc2cccc(N)c2)cc1C#N | > 214 | > 214 µM | –
58 | CCCCn1c(=O)c(N=O)c(N)n(CC)c1=O | > 200 | 174 µM | –
59 | NC1=NN(c2ccccc2)C(=O)C1C(=O)C(=O)Nc1ccc(Cl)cc1 (stereo not drawn) | > 347 | 251 µM | –
60 | CCC(=O)[CH-]C(=O)CC.CCC(=O)[CH-]C(=O)CC.[Cu+2] | > 200 | 24.5 µM | –
61 | C1CN2C(=N1)N1CCN=C1N1CCN=C21 | > 174 | > 174 µM | –
62 | NC(=O)c1nnsc1NN=O | > 200 | > 200 µM | –
63 | C[C@@H](O)[C@H]1/C=C/C=C\C(=O)O[C@@H]2C[C@H]3O[C@@H]4[C@@H]5OC5(C)CCC4(COC(=O)[C@H]4O[C@]4(C)[C@@H](O)CO1)[C@]2(C)[C@]31CO1 (stereo partly drawn) | > 0.2 | 0.0631 µM | –

Row | Structure (SMILES) | EC50 [µM] | IC50 | outcome
64 | C[C@]12CC[C@H](CC=C(c3cc(Cl)c(O)c(C(=O)O)c3)c3cc(Cl)c(O)c(C(=O)O)c3)C[C@@H]1CC[C@@H]1[C@@H]2CC[C@]2(C)[C@@H](CC=C(c3cc(Cl)c(O)c(C(=O)O)c3)c3cc(Cl)c(O)c(C(=O)O)c3)CC[C@@H]12 | 28.8 | 45.7 µM | –
65 | Cc1nnc2n1-c1ccccc1-c1[nH]c3ccccc3c1C2 | > 200 | 22.4 µM | –
66 | O=S1Cc2nc3ccccc3n2C1c1c(F)cccc1F (stereo not drawn) | > 117 | – | –
67 | CCN1C[C@]2(COC)CCC(OC)C34[C@@H]5C[C@@H]6C(O)[C@@H]5[C@](O)(C[C@@H]6OC)[C@@H](C[C@@H]32)[C@H]14 (stereo partly drawn) | – | – | inactive
68 | Clc1ccc(-n2nnc(C3=NCCCN3)c2-c2ccccc2)cc1 | 129 | 148 µM | –
69 | CC1(C)OC(CCO)CN1C(=O)OCc1ccccc1 (stereo not drawn) | 195 | > 200 µM | –
70 | Cc1nnc(N=Nc2c(O)[nH]c3ccccc23)n1N | > 70.8 | 58.9 µM | –
71 | CC(=O)OC1CN2CC[C@H](O)C2C(O)[C@@H]1O (stereo partly drawn) | 41.7 | 1070 µM | –
72 | CCOC(=O)C1(C(=O)OCC)Cc2c([nH]c3ccccc23)CN1C(=O)c1ccccc1 | > 22.4 | > 22.4 µM | –
73 | CC(=O)CCS(=O)(=O)O | > 200 | > 200 µM | –
74 | CC(=O)Nc1c(C#N)c2n(c1C(=O)Nc1ccc(S(N)(=O)=O)cc1)CCC2 | > 200 | > 200 µM | –
75 | Nc1ncnc2c1ncn2C1OC(CO)CC1F (stereo not drawn) | – | > 200 µM and 191 µM | –
76 | NCCCNOCCCN | > 200 | > 200 µM | –
77 | N#CN=C1N=S(=O)(c2ccccc2)c2ccccc21 (stereo not drawn) | > 186 | 162 µM | –
78 | C[N+]12CN3CN(C1)S(=O)(=O)N(C3)C2 | – | – | inactive
79 | Cc1[nH]c2ccccc2c1C1Cc2ccccc2N1C(=O)/C(C#N)=C/c1ccccc1 (stereo not drawn) | > 12.9 | 2.29 µM | –
80 | CCN(CC)CC[NH-].O=C([O-])[O-].O=C([O-])[O-].[Co+3].[K+] | > 200 | 18.6 µM | –
81 | Cc1ccc(-c2c(C#N)c(S)n(NS(=O)(=O)c3ccccc3)c(=O)c2C#N)cc1 | > 200 | 18.6 µM | –
82 | NC(=O)NC(=O)C1CCC(=O)N1S(=O)(=O)c1ccc(Cl)cc1 (stereo not drawn) | > 724 | 141 µM | –
